The results in this text go back to patent US20040186081A1, “Naaladase inhibitors for treating opioid tolerance” (Guilford Pharmaceuticals Inc., priority 2003, published 2004).

Chain of NAALADase (Q04609 whole entry): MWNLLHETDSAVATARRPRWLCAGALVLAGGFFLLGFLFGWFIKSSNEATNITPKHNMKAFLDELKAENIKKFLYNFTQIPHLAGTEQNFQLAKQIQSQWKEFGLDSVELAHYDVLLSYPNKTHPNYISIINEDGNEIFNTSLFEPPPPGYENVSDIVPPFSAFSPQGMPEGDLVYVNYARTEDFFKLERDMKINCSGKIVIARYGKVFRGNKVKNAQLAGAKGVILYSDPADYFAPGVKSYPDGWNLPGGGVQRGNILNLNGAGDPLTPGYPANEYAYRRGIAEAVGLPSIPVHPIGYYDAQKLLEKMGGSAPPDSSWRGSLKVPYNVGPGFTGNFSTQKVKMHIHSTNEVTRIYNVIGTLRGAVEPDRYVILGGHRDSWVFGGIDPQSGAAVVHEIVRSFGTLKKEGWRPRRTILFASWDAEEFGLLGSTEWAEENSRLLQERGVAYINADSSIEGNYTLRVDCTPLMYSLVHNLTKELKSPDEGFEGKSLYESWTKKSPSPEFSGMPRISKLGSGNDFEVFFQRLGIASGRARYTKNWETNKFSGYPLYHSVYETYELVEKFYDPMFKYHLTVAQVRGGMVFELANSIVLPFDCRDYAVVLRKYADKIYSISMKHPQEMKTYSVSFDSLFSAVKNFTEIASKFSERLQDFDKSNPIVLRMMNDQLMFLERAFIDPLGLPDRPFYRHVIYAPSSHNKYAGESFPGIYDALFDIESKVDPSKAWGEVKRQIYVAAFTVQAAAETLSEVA

The first test has as its target NAALADase (Homo sapiens, UniProt Q04609). The test can be described thus: In vitro inhibition of NAALADase activity. In kind it is biochemical.
Details: not given
One may read the Ki as the equilibrium dissociation constant of an inhibitor or competing ligand from its target. Low values mean a stronger hold on the target, high ones a looser hold on the target. Regarding `O=C(O)c1ccc(C(=O)O)c(S(=O)(=O)c2cc(C(=O)O)ccc2C(=O)O)c1` [2-[(2,5-dicarboxyphenyl)sulfonyl]-1,4-benzenedicarboxylic acid], the affinity corresponds to a Ki of 1870 nM.
Regarding `O=C(O)c1ccc(CCS)c(C(=O)O)c1` [4-(2-mercaptoethyl)-1,3-benzenedicarboxylic acid], the Ki was found to be 116 nM.
On the same count and under the same terms, the figure for `O=C(O)c1cc(CP(=O)(O)O)cc(C(=O)O)c1` [5-phosphonomethyl-1,3-benzenedicarboxylic acid] is 3100 nM; for `O=C(O)c1ccc(S(=O)(=O)c2cc(C(=O)O)ccc2C(=O)O)cc1` [2-[(4-carboxyphenyl)sulfonyl]-1,4-benzenedicarboxylic acid] it is 2370 nM; for `O=C(O)Cc1cc(C(=O)O)ccc1C(=O)O` [2-carboxymethyl-1,4-benzenedicarboxylic acid] it is 9000 nM.
On the same count and under the same terms, in the case of `O=C(O)c1cc(C(=O)O)cc(C(=O)NO)c1` [5-[(hydroxyamino)-carbonyl]-1,3-benzenedicarboxylic acid] it was 1000 nM; in that of `O=C(O)c1cc(CNCc2ccco2)cc(C(=O)O)c1` [5-[[(2-furanylmethyl)amino]methyl]-1,3-benzenedicarboxylic acid], 50000 nM; in that of `O=C(O)c1ccc(Sc2ccccc2C(=O)O)c(C(=O)O)c1` [4-[(2-carboxyphenyl)thio]-1,3-benzenedicarboxylic acid], 3980 nM.

The test is the same for the next values; noted with them: read-out: IC50.
In general, IC50 refers to the concentration that inhibits the measured activity by half. Regarding `O=C(O)c1ccccc1Oc1ccc(CC(CCCS)C(=O)O)cc1` (stereo not drawn) [4-(2-carboxyphenoxy)-alpha-(3-mercaptopropyl)-benzenepropanoic acid], the IC50 is 3590 nM.
On to `O=C(O)C(CCCS)Sc1ccccc1` (stereo not shown) [5-mercapto-2-(phenylthio)-pentanoic acid], for which the IC50 was found to be 297 nM.
As for `O=C(O)c1cccc(CC(CCCSC(C(=O)NO)c2ccccc2)C(=O)O)c1` (stereo not shown) [3-[2-Carboxy-5-(hydroxycarbamoyl-phenyl-methylsulfanyl)-pentyl]-benzoic acid], the IC50 came to 1120 nM.
Regarding `O=C(O)C(CCCS)Cc1cccc(C(F)(F)F)c1` (stereo not drawn) [alpha-(3-mercaptopropyl)-3-(trifluoromethyl)-benzenepropanoic acid], the half-inhibitory concentration (IC50) was 4000 nM.
Take `CCC(SCCC(Cc1cc(C(=O)O)cc(C(C)(C)C)c1)C(=O)O)C(=O)NO` (stereo not shown) [3-tert-Butyl-5-[2-carboxy-4-(1-hydroxycarbamoyl-propylsulfanyl)-butyl]-benzoic acid]: the IC50 worked out at 16000 nM.
As for `O=C(CSCCCCC(Cc1cccc(C(=O)O)c1)C(=O)O)NO` (stereo not shown) [3-(2-Carboxy-6-hydroxycarbamoylmethyl-sulfanylhexyl)-benzoic acid], the half-inhibitory concentration (IC50) stood at 3330 nM.
For the compound `O=C(CCCOc1cccc(-c2cccc(C(=O)O)c2)c1C(=O)O)NO` [3-(3-Hydroxycarbamoyl-propoxy)-biphenyl-2,3′-dicarboxylic acid], the IC50 was 9100 nM.
Regarding `O=C(O)c1c(CCS)cccc1OCCc1ccccc1` [2-(2-mercaptoethyl)-6-(2-phenylethoxy)-benzoic acid], the IC50 was 266 nM.
For the compound `COc1ccc(C(=O)O)cc1OC(CCCS)C(=O)O` (stereo not shown) [3-(1-carboxy-4-mercaptobutoxy)-4-methoxy-benzoic acid], the IC50 was 287 nM.
Regarding `O=C(COc1cccc(C(=O)O)c1)NO` [3-Hydroxycarbamoylmethoxy-benzoic acid], the IC50 came out at 40800 nM.
As to `O=C(CSCCCC(Cc1cc(C(=O)O)ccc1Cl)C(=O)O)NO` (stereo not shown) [3-(2-Carboxy-5-hydroxycarbamoylmethyl-sulfanylpentyl)-4-chloro-benzoic acid], the IC50 worked out at 16000 nM.
In the case of `COC(=O)c1cccc(CC(C(=O)O)C(=O)NO)c1` (stereo not shown) [3-(2-Carboxy-2-hydroxycarbamoyl-ethyl)-benzoic acid methyl ester], the 50% inhibitory concentration (IC50) is no less than 100000 nM.
On to `CC(C)(C)c1cc(CC(CCSCC(=O)NO)C(=O)O)cc(C(=O)O)c1` (stereo not shown) [3-tert-Butyl-5-(2-carboxy-4-hydroxycarbamoylmethyl-sulfanylbutyl)-benzoic acid], for which the IC50 was found to be 1060 nM.
Consider `O=C(CSCCCC(Cc1cc(Oc2ccccc2)cc(C(=O)O)c1)C(=O)O)NO` (stereo not shown) [3-(2-Carboxy-5-hydroxycarbamoylmethyl-sulfanylpentyl)-5-phenoxy-benzoic acid], for which the half-maximal inhibitory concentration (IC50) came out at 3250 nM.
Consider `O=C(NO)c1ccc(O)c(C(=O)O)c1` [6,N-Dihydroxy-isophthalamic acid], for which the concentration for half-maximal inhibition (IC50) is no less than 100000 nM.
Still for that read-out and setting: in the case of `O=C(CCCSCC(Cc1cccc(C(=O)O)c1)C(=O)O)NO` (stereo not shown) [3-[2-Carboxy-3-(3-hydroxycarbamoyl-propylsulfanyl)-propyl]-benzoic acid] it was 6050 nM; in that of `CC(S)CCC(Cc1cc(C(=O)O)cc(C(C)(C)C)c1)C(=O)O` (stereo not drawn) [3-carboxy-5-(1,1-dimethylethyl)-alpha-(3-mercaptobutyl)-benzenepropanoic acid], 1 nM; in that of `O=C(O)c1ccc(F)c(CC(CCCS)C(=O)O)c1` (stereo not drawn) [5-carboxy-2-fluoro-alpha-(3-mercaptopropyl)-benzenepropanoic acid], 6.33 nM.
On the same count and under the same terms, the figure for `CCOC(=O)c1cc(C(=O)O)cc(C(=O)NO)c1` [5-Hydroxycarbamoyl-isophthalic acid monoethyl ester] is 29000 nM; for `O=C(O)c1ccc(CC(CCCS)C(=O)O)cc1Br` (stereo not drawn) [3-bromo-4-carboxy-alpha-(3-mercaptopropyl)-benzenepropanoic acid] it is 146 nM.
Take `CCC(SCC(Cc1cccc(C(=O)O)c1)C(=O)O)C(=O)NO` (stereo not shown) [3-[2-Carboxy-3-(1-hydroxycarbamoyl-propylsulfanyl)-propyl]-benzoic acid]: the half-maximal inhibitory concentration (IC50) is 41500 nM.
`O=C(O)c1ccccc1Oc1cccc(CC(CCCS)C(=O)O)c1` (stereo not drawn) [3-(2-carboxyphenoxy)-alpha-(3-mercaptopropyl)-benzenepropanoic acid]: the IC50 is 49 nM.
Regarding `O=C(O)c1ccccc1OC(CCCS)C(=O)O` (stereo not shown) [2-(1-carboxy-4-mercaptobutoxy)-benzoic acid], the IC50 amounted to 4600 nM.
With `O=C(O)c1cc(CC(CCCS)C(=O)O)cc(Oc2ccccc2)c1` (stereo not drawn) [3-carboxy-alpha-(3-mercaptopropyl)-5-phenoxy-benzenepropanoic acid], the IC50 came out at 5 nM.
Consider `O=C(NCc1ccccc1)c1cccc(CC(CCCS)C(=O)O)c1` (stereo not drawn) [alpha-(3-mercaptopropyl)-3-[[(phenylmethyl)amino]carbonyl]-benzenepropanoic acid], for which the IC50 turned out to be 1130 nM.
For the compound `O=C(O)c1cc(CS)ccc1OCCc1ccccc1` [5-(mercaptomethyl)-2-(2-phenylethoxy)-benzoic acid], the 50% inhibitory concentration (IC50) worked out at 188 nM.
The same measure, in the same setting: in the case of `COC(=O)c1cccc(-c2cccc(OCC(=O)NO)c2C(=O)OC)c1` [3-Hydroxycarbamoylmethoxy-biphenyl-2,3′-dicarboxylic acid dimethyl ester] it was no less than 100000 nM; in that of `COc1ccc(C(=O)O)cc1CC(CCCS)C(=O)O` (stereo not drawn) [5-carboxy-alpha-(3-mercaptopropyl)-2-methoxy-benzenepropanoic acid], 26 nM; in that of `N#Cc1ccccc1CC(CCCS)C(=O)O` (stereo not drawn) [2-cyano-alpha-(3-mercaptopropyl)-benzenepropanoic acid], 450 nM.
`O=C(O)c1cccc(CC(CNO)C(=O)O)c1` (stereo not shown) [3-(2-Carboxy-3-hydroxyamino-propyl)-benzoic acid]: the half-inhibitory concentration (IC50) is 44000 nM.
`O=C(O)c1ccc(CC(CCCS)C(=O)O)cc1` (stereo not drawn) [4-carboxy-alpha-(3-mercaptopropyl)-benzenepropanoic acid]: the half-inhibitory concentration (IC50) turned out to be 59 nM.
The same measure, in the same setting: the figure for `CC(C)(C)CCOc1cccc(CCS)c1C(=O)O` [2-(3,3-dimethylbutoxy)-6-(2-mercaptoethyl)-benzoic acid] is 2580 nM.
`CC(C)(C)c1cc(CC(CC(=O)NO)C(=O)O)cc(C(=O)O)c1` (stereo not shown) [3-tert-Butyl-5-(2-carboxy-3-hydroxycarbamoyl-propyl)-benzoic acid]: the IC50 was found to be 296 nM.
As to `COc1cc(C(=O)O)ccc1COc1cccc(CCS)c1C(=O)O` [2-[(4-carboxy-2-methoxyphenyl)methoxy]-6-(2-mercaptoethyl)-benzoic acid], the half-inhibitory concentration (IC50) worked out at 7 nM.
Turning to `O=C(O)c1cc(O)ccc1CCS` [5-hydroxy-2-(2-mercaptoethyl)-benzoic acid], the IC50 was found to be 9170 nM.
On to `O=C(CCOc1cccc(-c2cccc(C(=O)O)c2)c1C(=O)O)NO` [3-(2-1-Hydroxycarbamoyl-ethoxy)-biphenyl-2,3′-dicarboxylic acid], for which the IC50 worked out at 14900 nM.
With `O=C(O)c1cccc(CCS)c1` [3-(2-mercaptoethyl)-benzoic acid], the IC50 came to 6050 nM.
On the same count and under the same terms, the figure for `COC(=O)c1cc(CC(C(=O)O)C(=O)NO)cc(C(C)(C)C)c1` (stereo not shown) [3-tert-Butyl-5-(2-carboxy-2-hydroxycarbamoyl-ethyl)-benzoic acid methyl ester] is 38600 nM.
As to `O=C(CSCCCC(Cc1cccc(-c2ccccc2)c1)C(=O)O)NO` (stereo not shown) [2-Biphenyl-3-ylmethyl-5-hydroxy-carbamoylmethylsulfanyl-pentanoic acid], the IC50 worked out at 4210 nM.
Turning to `O=C(O)c1cc(CC(CCCS)C(=O)O)ccc1F` (stereo not drawn) [3-carboxy-4-fluoro-alpha-(3-mercaptopropyl)-benzenepropanoic acid], the 50% inhibitory concentration (IC50) came out at 12 nM.
With `O=C(CCCSCc1ccc(-c2cccc(C(=O)O)c2)c(C(=O)O)c1)NO` [4-(3-Hydroxycarbamoyl-propylsulfanylmethyl)-biphenyl-2,3′-dicarboxylic acid], the IC50 was 10800 nM.
The same measure, in the same setting: the figure for `O=C(CCc1cccc(OCc2cccc(C(=O)O)c2)c1)NO` [3-[3-(2-Hydroxycarbamoyl-ethyl)-phenoxymethyl]-benzoic acid] is 92700 nM; for `O=C(O)C(CCCS)Cc1cccc(Oc2ccccc2)c1` (stereo not drawn) [alpha-(3-mercaptopropyl)-3-phenoxy-benzenepropanoic acid] it is 308 nM; for `CC(=O)Nc1ccc(CC(CCCS)C(=O)O)cc1` (stereo not drawn) [4-(acetylamino)-alpha-(3-mercaptopropyl)-benzenepropanoic acid] it is 2200 nM.
For the compound `O=C(O)c1cc(CC(CCCS)C(=O)O)cc(C(=O)O)c1` (stereo not shown) [5-(2-carboxy-5-mercaptopentyl)-1,3-benzenedicarboxylic acid], the IC50 stood at 2.55 nM.
Same read-out and setting: the figure for `O=C(O)c1ccc(CC(CCCS)C(=O)O)c2ccccc12` (stereo not drawn) [4-carboxy-alpha-(3-mercaptopropyl)-1-naphthalenepropanoic acid] is 316 nM.
For the compound `O=C(O)c1cccc(CS)c1` [3-(mercaptomethyl)-benzoic acid], the IC50 was 3780 nM.
